# Data as given in ChEMBL document CHEMBL1201862, “PubChem BioAssay data set” (2004).
# Active and inactive are the calls of the source.
# Assays:
# [1] = THP-1 cell cytotoxicity, dose response, cytotoxicity control for Vif-APOBEC3G degradation inhibitor project, THP-1 cells (AID 1117359); assay type: functional; settings: Human immunodeficiency virus 1, THP-1
# [2] = molecular target: T1, RNA-binding protein pos-1 (Caenorhabditis elegans, UniProt G5EF15); experiment: inhibitors of POS-1/mex-3 RNA binding, dose response, biochemical, fluorescence polarization (AID 1964);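 note: purified POS-1 fused to maltose binding protein made in E. coli; potency of compounds blocking POS-1 binding to fluorescent RNA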
# T1 sequence (G5EF15 whole entry): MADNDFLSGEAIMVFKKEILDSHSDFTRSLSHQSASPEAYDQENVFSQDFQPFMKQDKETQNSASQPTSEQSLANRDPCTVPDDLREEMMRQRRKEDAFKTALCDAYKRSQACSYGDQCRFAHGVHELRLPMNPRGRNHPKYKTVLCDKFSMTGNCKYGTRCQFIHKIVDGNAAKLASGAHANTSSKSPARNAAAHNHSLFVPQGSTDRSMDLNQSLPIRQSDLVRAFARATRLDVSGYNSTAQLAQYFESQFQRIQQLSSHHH
# [3] = molecular target: T2, Zinc finger protein mex-5 (Caenorhabditis elegans, UniProt Q9XUB2); experiment: MEX-5/TCR-2 RNA interaction inhibitors, dose response, biochemical, C. elegans, fluorescence polarization (AID 1960)
# T2 sequence (Q9XUB2 whole entry): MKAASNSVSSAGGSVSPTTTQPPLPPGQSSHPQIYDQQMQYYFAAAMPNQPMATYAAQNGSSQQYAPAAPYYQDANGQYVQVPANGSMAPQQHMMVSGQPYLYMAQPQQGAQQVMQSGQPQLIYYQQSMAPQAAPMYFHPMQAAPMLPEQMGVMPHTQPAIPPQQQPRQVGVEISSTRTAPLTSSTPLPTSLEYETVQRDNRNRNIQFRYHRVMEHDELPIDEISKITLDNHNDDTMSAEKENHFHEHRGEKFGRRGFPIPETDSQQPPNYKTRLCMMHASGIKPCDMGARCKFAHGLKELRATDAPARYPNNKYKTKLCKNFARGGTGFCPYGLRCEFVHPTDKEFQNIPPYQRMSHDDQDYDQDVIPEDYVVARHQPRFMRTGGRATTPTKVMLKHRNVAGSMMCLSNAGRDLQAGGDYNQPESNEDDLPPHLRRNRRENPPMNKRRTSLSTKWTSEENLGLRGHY
# [4] = molecular target: T3, Carboxy-terminal domain RNA polymerase II polypeptide A small phosphatase 1 (Homo sapiens, UniProt Q9GZU7); experiment: inhibitors of CTDSP1, concentration-response testing, biochemical assay, absorbance-based, actives from ultra-high-throughput screening (AID 540297); assay type: functional
# T3 sequence (Q9GZU7 whole entry): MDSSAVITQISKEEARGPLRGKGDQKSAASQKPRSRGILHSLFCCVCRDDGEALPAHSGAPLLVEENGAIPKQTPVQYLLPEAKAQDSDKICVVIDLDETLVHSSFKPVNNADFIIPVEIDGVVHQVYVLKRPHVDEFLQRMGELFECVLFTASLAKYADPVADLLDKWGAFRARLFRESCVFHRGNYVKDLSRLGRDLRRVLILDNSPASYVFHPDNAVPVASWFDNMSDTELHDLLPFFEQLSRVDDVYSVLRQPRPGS
# [5] = molecular target: T4, Rac GTPase-activating protein 1 (Homo sapiens, UniProt Q9H0H5); experiment: MgcRacGAP GTPase-activating activity inhibitors, confirmation, biochemical, ADP Hunter fluorescence, primary and confirmatory (AID 624330); assay type: functional
# T4 sequence (Q9H0H5 whole entry): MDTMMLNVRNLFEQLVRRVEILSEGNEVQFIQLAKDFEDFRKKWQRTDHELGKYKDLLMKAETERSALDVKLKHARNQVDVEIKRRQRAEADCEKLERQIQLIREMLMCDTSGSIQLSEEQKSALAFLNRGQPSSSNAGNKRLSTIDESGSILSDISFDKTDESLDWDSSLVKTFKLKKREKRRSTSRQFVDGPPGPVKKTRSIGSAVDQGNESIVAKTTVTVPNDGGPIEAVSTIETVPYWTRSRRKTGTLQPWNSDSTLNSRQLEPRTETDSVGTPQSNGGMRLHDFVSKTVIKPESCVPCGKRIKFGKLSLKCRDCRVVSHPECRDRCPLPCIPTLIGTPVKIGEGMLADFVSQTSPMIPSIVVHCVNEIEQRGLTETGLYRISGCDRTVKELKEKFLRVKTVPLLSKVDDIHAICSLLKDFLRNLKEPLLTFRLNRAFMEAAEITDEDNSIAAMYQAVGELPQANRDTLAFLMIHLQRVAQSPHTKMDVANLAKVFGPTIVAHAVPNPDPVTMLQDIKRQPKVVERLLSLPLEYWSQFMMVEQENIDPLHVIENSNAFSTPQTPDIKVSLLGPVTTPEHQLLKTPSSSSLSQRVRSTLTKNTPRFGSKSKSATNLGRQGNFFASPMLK
# [6] = molecular target: T5, High affinity choline transporter 1 (Homo sapiens, UniProt Q9GZV3); experiment: CHT inhibitors, dose response, cell-based, 5-point CRC, membrane potential dye (AID 504840); assay type: functional
# T5 sequence (Q9GZV3 whole entry): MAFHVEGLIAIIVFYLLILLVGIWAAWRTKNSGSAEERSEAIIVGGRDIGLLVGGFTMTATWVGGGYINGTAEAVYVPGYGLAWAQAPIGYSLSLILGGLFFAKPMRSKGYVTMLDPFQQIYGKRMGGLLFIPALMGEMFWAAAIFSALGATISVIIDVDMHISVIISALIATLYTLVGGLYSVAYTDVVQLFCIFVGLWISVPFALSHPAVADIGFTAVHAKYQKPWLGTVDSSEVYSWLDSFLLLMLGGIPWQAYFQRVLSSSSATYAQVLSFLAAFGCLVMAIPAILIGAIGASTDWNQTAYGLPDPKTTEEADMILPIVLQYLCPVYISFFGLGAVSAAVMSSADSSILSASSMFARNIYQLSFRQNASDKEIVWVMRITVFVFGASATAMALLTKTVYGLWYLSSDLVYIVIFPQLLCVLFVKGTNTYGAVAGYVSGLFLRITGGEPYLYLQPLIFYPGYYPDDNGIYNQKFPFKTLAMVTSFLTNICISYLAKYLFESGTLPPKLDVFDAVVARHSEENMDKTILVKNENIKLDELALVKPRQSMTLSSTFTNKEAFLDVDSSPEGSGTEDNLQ
# Bcl-2-related protein A1 = molecular target: T6, Bcl-2-related protein A1 (Mus musculus, UniProt Q07440); assay type: functional;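 note: confirmatory dose–response counterscreen on Bfl-1, used to check hits from a UBC13 polyubiquitin inhibitor campaign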
# T6 sequence (Q07440 whole entry): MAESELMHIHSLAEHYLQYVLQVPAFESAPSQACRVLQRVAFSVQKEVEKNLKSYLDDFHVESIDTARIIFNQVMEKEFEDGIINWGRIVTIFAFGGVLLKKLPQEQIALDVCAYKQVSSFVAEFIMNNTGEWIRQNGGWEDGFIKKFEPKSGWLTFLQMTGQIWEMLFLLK
# [7] = molecular target: T7, Ubiquitin-conjugating enzyme E2 N (Homo sapiens, UniProt P61088); assay type: functional
# T7 sequence (P61088 whole entry): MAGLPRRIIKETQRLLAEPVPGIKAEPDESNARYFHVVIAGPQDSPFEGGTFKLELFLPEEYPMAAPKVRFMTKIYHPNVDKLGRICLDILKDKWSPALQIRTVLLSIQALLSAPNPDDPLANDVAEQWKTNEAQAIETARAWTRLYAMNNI
# [8] = molecular target: T7, Ubiquitin-conjugating enzyme E2 N; assay type: functional; remark: listed apart in the source
# [9] = molecular target: Protein-tyrosine kinase 2-beta (Homo sapiens, UniProt Q14289);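 note: potency of inhibitors of PYK2 kinase phosphorylation of poly-GT substrate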
# Estrogen receptor beta = Estrogen receptor beta (Homo sapiens, UniProt Q92731); experiment: ERβ–SRC-3 coactivator interaction inhibitors, confirmation, orthogonal assay, biochemical, ELISA, streptavidin-HRP readout (AID 1060)
# Escherichia coli = experiment: microbe, parasite or virus in culture
# [10] = molecular target: T8, Apoptotic protease-activating factor 1 (Homo sapiens, UniProt O14727); assay type: functional
# T8 sequence (O14727 whole entry): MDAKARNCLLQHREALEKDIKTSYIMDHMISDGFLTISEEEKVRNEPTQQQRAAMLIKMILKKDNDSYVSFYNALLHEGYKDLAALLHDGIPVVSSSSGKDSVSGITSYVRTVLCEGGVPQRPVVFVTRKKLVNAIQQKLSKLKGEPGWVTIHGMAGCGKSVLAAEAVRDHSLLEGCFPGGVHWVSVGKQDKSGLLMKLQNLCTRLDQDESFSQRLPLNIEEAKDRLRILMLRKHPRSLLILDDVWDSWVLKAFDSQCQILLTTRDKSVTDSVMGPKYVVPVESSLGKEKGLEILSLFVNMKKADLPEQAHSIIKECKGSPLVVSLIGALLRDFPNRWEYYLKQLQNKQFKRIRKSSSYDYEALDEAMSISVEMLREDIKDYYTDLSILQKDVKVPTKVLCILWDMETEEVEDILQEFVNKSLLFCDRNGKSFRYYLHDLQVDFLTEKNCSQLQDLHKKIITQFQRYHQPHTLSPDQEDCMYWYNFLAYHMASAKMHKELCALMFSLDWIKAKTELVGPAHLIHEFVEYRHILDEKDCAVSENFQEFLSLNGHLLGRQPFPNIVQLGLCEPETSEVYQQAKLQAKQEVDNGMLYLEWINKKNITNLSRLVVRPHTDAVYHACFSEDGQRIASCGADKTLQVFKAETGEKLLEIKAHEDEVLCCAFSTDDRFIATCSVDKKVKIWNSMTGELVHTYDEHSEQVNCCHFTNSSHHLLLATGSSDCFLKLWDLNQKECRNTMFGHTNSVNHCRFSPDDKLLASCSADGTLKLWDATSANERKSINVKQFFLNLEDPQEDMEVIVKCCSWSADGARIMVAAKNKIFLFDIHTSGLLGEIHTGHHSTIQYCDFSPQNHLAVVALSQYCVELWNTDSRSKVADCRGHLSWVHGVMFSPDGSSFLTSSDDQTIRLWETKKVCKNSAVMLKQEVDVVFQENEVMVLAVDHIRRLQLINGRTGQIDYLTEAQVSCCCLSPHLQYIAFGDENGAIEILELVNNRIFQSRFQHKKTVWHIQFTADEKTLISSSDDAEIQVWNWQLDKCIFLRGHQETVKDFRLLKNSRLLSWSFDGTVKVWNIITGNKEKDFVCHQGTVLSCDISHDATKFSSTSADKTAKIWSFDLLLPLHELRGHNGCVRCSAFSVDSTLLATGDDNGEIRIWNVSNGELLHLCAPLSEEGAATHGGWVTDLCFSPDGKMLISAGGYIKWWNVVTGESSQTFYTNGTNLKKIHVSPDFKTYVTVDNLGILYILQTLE
# [11] = molecular target: Voltage-gated N-type calcium channel alpha-1B subunit/Amyloid beta A4 precursor protein-binding family A member 1 (Homo sapiens, UniProt Q00975+Q02410); assay type: protein assay
# [12] = MC4R antagonists, dose response, counter-screen for LGR2 antagonist project, cell-based, plate reader, cherry pick (AID 743444); assay type: functional;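 note: transfected HEK 293 cells stimulated with alpha-MSH peptide; potency of inhibitors of the alpha-MSH evoked signal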
# [13] = A549 cell cytotoxicity, dose response, cytotoxicity control, plate reader, cherry-pick, antagonist series (AID 743412); assay type: functional, cell-based
# Voltage-gated N-type calcium channel alpha-1B subunit/Amyloid beta A4 precursor protein-binding family A member 1, sequence (Q00975 whole entry): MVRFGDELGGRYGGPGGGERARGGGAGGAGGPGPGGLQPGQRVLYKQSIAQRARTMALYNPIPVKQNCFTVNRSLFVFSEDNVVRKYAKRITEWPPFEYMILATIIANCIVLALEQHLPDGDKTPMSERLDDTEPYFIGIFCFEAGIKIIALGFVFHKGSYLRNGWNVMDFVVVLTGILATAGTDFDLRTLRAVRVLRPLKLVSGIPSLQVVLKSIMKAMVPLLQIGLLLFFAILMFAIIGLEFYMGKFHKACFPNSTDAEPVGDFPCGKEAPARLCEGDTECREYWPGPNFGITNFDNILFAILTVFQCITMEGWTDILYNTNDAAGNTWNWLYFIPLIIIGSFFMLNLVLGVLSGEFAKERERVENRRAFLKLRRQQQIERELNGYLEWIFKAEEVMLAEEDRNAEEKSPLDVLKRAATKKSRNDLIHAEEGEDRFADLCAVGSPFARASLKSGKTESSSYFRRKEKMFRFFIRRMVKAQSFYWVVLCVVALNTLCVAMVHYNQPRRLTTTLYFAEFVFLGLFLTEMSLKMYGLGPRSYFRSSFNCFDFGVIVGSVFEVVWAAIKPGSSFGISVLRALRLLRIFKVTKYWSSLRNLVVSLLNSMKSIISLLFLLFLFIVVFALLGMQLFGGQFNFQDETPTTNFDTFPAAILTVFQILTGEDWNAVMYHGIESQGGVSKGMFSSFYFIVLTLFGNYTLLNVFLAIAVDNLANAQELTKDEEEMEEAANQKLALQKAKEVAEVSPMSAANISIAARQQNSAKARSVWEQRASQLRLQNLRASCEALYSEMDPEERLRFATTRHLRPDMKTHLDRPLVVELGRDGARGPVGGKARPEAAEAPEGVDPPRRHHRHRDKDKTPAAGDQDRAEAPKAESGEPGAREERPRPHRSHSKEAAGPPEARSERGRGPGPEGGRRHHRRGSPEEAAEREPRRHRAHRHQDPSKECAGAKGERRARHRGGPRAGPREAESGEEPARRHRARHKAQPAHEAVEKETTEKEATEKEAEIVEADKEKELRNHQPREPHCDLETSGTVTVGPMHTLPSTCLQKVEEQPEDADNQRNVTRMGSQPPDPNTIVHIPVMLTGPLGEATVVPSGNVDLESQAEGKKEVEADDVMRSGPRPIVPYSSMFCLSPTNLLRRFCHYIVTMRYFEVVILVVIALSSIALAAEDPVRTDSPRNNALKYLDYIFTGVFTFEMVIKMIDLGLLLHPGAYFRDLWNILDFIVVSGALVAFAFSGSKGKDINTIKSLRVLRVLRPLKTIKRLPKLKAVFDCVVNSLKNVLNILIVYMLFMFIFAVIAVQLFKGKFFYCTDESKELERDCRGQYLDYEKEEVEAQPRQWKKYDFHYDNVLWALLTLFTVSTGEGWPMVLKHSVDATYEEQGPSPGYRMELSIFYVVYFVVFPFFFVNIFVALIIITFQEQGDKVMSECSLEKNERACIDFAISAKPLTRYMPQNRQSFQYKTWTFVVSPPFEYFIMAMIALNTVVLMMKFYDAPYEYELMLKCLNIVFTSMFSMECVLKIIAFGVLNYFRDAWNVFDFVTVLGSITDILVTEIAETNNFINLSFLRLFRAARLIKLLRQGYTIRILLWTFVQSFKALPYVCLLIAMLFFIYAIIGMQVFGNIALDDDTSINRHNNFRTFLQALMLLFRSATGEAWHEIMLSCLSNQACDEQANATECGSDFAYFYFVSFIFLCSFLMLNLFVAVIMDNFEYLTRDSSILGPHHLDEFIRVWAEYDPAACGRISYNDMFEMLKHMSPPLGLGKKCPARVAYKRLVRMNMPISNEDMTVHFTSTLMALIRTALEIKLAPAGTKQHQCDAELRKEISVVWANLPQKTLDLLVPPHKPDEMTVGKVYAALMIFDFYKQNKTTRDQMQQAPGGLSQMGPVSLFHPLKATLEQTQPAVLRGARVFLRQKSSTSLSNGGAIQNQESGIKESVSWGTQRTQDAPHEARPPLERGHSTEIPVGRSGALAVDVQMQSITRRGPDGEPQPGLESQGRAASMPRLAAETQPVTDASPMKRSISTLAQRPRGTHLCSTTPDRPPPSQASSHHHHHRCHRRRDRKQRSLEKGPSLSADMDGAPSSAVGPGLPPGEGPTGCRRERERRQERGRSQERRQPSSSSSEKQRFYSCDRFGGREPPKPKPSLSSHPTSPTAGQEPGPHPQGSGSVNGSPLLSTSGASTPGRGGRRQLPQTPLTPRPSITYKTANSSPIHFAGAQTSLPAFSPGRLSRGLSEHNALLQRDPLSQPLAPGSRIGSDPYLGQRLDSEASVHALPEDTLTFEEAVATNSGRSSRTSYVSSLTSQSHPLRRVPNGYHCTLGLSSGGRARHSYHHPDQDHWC
# Voltage-gated N-type calcium channel alpha-1B subunit/Amyloid beta A4 precursor protein-binding family A member 1, sequence (Q02410 whole entry): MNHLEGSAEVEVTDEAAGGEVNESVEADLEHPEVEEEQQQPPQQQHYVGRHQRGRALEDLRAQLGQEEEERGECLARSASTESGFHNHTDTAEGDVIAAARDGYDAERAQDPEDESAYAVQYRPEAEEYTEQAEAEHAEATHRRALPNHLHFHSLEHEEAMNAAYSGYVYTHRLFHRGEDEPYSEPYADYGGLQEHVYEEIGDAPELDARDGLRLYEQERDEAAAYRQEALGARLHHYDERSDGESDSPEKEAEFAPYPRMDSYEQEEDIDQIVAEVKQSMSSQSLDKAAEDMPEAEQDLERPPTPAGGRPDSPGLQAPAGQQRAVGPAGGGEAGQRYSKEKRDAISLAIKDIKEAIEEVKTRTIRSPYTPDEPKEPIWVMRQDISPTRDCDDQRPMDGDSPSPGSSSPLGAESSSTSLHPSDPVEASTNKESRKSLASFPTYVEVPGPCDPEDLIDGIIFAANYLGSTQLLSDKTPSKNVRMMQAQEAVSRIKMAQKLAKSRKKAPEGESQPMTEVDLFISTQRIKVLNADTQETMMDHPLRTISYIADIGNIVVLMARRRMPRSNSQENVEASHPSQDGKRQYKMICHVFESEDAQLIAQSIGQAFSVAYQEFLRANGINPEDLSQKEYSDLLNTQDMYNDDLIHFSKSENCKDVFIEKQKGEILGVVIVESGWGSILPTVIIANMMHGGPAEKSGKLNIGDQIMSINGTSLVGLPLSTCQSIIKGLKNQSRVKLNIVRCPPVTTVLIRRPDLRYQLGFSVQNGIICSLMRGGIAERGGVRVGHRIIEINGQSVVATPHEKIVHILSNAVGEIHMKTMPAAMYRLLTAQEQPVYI
# Protein-tyrosine kinase 2-beta, sequence (Q14289 whole entry): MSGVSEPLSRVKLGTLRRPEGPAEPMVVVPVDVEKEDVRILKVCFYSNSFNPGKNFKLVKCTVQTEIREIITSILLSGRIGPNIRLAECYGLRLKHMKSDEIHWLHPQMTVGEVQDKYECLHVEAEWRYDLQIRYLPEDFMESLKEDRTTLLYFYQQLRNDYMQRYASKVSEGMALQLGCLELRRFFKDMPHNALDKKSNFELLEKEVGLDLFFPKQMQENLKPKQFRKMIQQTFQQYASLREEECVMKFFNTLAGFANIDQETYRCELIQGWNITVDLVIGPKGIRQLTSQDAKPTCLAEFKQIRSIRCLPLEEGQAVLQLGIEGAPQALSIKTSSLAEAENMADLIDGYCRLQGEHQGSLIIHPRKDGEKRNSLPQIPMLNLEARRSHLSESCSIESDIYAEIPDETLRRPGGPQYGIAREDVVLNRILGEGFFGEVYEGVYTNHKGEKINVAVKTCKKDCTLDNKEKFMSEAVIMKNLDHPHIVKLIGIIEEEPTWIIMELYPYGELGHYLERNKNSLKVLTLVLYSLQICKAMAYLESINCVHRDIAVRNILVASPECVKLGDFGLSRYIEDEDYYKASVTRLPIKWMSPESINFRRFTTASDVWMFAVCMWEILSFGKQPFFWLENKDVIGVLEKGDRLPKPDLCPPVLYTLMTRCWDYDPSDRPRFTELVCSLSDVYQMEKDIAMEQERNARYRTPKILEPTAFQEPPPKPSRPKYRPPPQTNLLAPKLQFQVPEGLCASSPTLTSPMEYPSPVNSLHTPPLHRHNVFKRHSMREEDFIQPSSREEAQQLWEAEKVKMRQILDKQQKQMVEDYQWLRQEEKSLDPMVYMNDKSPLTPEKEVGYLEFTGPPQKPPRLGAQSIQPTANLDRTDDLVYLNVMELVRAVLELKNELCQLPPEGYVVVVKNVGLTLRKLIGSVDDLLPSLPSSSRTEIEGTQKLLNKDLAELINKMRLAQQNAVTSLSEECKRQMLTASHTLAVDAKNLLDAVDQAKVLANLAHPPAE
# Estrogen receptor beta, sequence (Q92731 whole entry): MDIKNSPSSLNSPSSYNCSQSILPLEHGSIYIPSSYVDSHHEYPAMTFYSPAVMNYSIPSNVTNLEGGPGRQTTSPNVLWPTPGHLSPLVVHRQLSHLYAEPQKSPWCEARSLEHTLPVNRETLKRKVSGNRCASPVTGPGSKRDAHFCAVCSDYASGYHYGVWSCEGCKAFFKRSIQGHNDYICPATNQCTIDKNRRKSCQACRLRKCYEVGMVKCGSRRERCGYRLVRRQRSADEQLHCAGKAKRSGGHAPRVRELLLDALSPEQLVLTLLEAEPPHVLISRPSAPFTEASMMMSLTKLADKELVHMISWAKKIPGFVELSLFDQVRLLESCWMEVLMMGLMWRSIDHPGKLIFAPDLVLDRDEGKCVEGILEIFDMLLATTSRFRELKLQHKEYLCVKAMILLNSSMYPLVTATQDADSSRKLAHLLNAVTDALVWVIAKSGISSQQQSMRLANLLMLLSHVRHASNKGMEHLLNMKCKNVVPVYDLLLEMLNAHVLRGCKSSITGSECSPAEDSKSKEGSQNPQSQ
smiles,measurement,setting,value
Cn1cccc1/C=C1\C(=O)NC(=O)N(Cc2ccco2)C1=O,CC50,[1],> 40 µM (active)
same,EC50,[2],> 300 µM (not active)
same,EC50,[3],57.7 µM (active)
same,IC50,[4],4.88 µM (active)
same,IC50,[5],116 µM (active)
Clc1ccc(CSCCc2ccncc2)cc1,CC50,[1],> 40 µM (active)
Cc1ccc(-c2nnc(OCC3CCCO3)c3ccccc23)cc1 (stereo unspecified),IC50,[6],14.5 µM (active)
CC1CCN(S(=O)(=O)c2ccc3c(c2)N(CC(=O)NCCCN2CCCCC2C)C(=O)CS3)CC1 (stereo unspecified),IC50,[6],13 µM (active)
Cc1c(NC(=O)CCCCCN2C(=O)c3ccccc3C2=O)c(=O)n(-c2ccccc2)n1C,IC50,Bcl-2-related protein A1,> 20 µM (inactive)
same,IC50,[7],1.23 µM (active)
same,IC50,[8],0.709 µM (active)
O=C(OCC(=O)N1CCN(C(=O)c2ccco2)CC1)c1cc(-c2ccc(Cl)c(Cl)c2Cl)nc2ccccc12,IC50,[9],5.94 µM (active)
N#Cc1c(NC(=O)CN2CCCCC2)sc2c1CCC2,IC50,Estrogen receptor beta,0.0561 µM (not active)
CC(C)c1ccc(NC(=O)C[n+]2ccn(C3=C([O-])c4ccccc4C3=O)c2)cc1,IC50,Bcl-2-related protein A1,> 20 µM (inactive)
same,IC50,[7],11.8 µM (active)
same,IC50,[8],17.8 µM (active)
Cc1ccc(NC(=O)COC(=O)CCC(=O)c2cccs2)c(C)c1,AC50,Escherichia coli,> 150 µM (inactive)
COc1ccc(CCN=C(N)NS(=O)(=O)c2cccs2)cc1,AC50,Escherichia coli,112 µM (active)
CCCN(CC(=O)Nc1ccccc1OC)C(=O)CSc1ccc(Br)cc1C,CC50,[1],> 40 µM (active)
same,IC50,[10],48.4 µM (active)
CCOc1ccc(NC(=O)Cn2cncc2-c2ccc([N+](=O)[O-])cc2)cc1,IC50,[11],5.93 µM (active)
C#CCOCCOCCOCCNc1nc(N2CCN(C(=O)[C@H](CCCCN)n3cc(CN)nn3)CC2)nc(N2CCN(C(=O)[C@H](CCCN=C(N)N)n3cc(C(N)[C@H](C)CC)nn3)CC2)n1 (stereo partly specified),IC50,Bcl-2-related protein A1,> 20 µM (inactive)
same,IC50,[7],12 µM (active)
same,IC50,[8],7.94 µM (active)
O=C(C1CC(=O)N(C2CCCC2)C1)N1CCN(c2ccc(F)cc2)CC1 (stereo unspecified),AC50,Escherichia coli,31.8 µM (active)
COc1ccc(S(=O)(=O)Nc2ccc3c(c2)C(=O)N([C@@H](C)CO)C[C@@H](C)[C@H](CN(C)C(=O)Nc2cccc4ccccc24)OCCCC[C@H](C)O3)cc1,AC50,[12],2.05 µM (active)
same,AC50,[13],> 52 µM (inactive)
O=C(N/N=C/c1ccsc1)c1c[nH]c2ccccc12,IC50,[6],3.8 µM (active)
COc1ccccc1NC(=O)c1c(/N=C/c2ccccc2O)cnn1C,IC50,Bcl-2-related protein A1,> 20 µM (inactive)
same,IC50,[7],10.5 µM (active)
same,IC50,[8],10.4 µM (active)
